Where two headings read alike, the source gives them in different places.
Legend:
CYP2C9 [1] = details: for % inhibition of CYP2C9 activity: tolbutamide 1 mM, rat liver microsomes; for 4′-hydroxytolbutamide: Sprague-Dawley, rat, 7.5 min, pH 7.4
[2] = In vivo study in rodents: fluvastatin pharmacokinetics with or without tamarixetin; details: tamarixetin pretreatment versus control, rats
Description: (§1) The test system used is the Sprague-Dawley rat.
(§2) After overnight fast, rats are anesthetized and prepared with a jugular catheter. […] Twelve blood samples (including pre dose blank) are collected over 24 hours—0, 10, 20, 40, 60, 120, 240, 360, 480, 720, 1080 and 1440 minutes. Each sample (0.5 to 0.6 mL blood) is collected into microfuge tubes containing 20 uL of 10 IU heparin (anti-coagulant). After separation, plasma samples are protected from light and stored at −80° C. freezer.

CYP2C9 [3] = assay: in vitro; details: Sprague-Dawley, rat, microsomes
CYP2C9 [4] = target: CYP2C9 (Homo sapiens, UniProt P11712); details: cited from earlier work
Sequence of CYP2C9 (Homo sapiens, UniProt P11712) (P11712 whole entry): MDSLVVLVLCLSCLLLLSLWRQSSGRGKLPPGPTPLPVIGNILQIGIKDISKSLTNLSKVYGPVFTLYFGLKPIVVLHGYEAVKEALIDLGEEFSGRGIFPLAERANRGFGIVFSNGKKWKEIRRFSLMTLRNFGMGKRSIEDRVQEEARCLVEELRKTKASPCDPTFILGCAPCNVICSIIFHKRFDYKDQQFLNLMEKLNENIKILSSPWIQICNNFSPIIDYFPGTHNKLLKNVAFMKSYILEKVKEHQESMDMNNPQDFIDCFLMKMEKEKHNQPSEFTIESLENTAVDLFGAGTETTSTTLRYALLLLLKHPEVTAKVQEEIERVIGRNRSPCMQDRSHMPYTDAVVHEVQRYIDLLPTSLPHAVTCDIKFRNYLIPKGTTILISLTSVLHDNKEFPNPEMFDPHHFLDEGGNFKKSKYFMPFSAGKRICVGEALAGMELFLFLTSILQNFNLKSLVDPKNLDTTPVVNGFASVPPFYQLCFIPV

in vivo = details: Sprague-Dawley, rat, po, 1.5 mg/kg; for Cmax: Cmax of fluvastatin
Description: as §1, §2

[5] = rats; cited from earlier work
[6] = pH 7.4, % inhibition of CYP2C9 activity
[7] = pH 7.4, % inhibition of tolbutamide metabolism in microsomes

Q: Which “% inhibition of CYP2C9 activity” value (CYP2C9 [1]; test article 1 μM) does the source give for O=C1C[C@@H](c2ccc(O)cc2)Oc2cc(O)cc(O)c21 [Narigenin] here?
A: 5.20%

Q: What about the “% inhibition of CYP2C9 activity” value (CYP2C9 [1]; test article 10 μM) of the same compound?
A: 49.98%

Q: And the “% inhibition of CYP2C9 activity” value (CYP2C9 [1]; test article 100 μM)?
A: 79.70%

Q: For COc1ccc(-c2oc3cc(O)cc(O)c3c(=O)c2O)cc1O [Tamarixetin], which “4′-hydroxytolbutamide” value (CYP2C9 [1]; 1 μM) is on record?
A: 213.5696 ± 24.4309 ng

Q: And the “4′-hydroxytolbutamide” value (CYP2C9 [1]; 10 μM)?
A: 43.1 ± 2.5372 ng

Q: And the “4′-hydroxytolbutamide” value (CYP2C9 [1]; 100 μM)?
A: 35.49 ± 1.5825 ng

Q: What about the “change of terminal elimination rate constant (k) of fluvastatin” value [2] of the same compound?
A: no apparent changes

Q: What about the inhibition at 7.5 min, 1 μM (CYP2C9 [3]; pH 7.4, % inhibition) of the same compound?
A: 42%

Q: What about the inhibition at 7.5 min, 10 μM (CYP2C9 [3]; pH 7.4, % inhibition) of the same compound?
A: 88.2%

Q: What about the inhibition at 7.5 min, 100 μM (CYP2C9 [3]; pH 7.4, % inhibition) of the same compound?
A: 90.2%

Q: What about the inhibition at 7.5 min, 1 μM (CYP2C9 [3]; [6]) of the same compound?
A: 42%

Q: And the inhibition at 7.5 min, 10 μM (CYP2C9 [3]; [6])?
A: 88.1%

Q: And the inhibition at 7.5 min, 100 μM (CYP2C9 [3]; [6])?
A: 90.2%

Q: What about the inhibition at 7.5 min, 1 μM (CYP2C9 [3]; [7]) of the same compound?
A: 42%

Q: What about the inhibition at 7.5 min, 10 μM (CYP2C9 [3]; [7]) of the same compound?
A: 88.1%

Q: And the inhibition at 7.5 min, 100 μM (CYP2C9 [3]; [7])?
A: 90.2%

Q: Which results are given for CC(C)n1c(/C=C/C(O)CC(O)CC(=O)O)c(-c2ccc(F)cc2)c2ccccc21 (centres unmarked) [fluvastatin]?
A: share of metabolism for which liver CYP2C9 is responsible (CYP2C9 [4]): approximately 80%; AUC(0-inf) (in vivo): 950 ± 133 ng·h/mL; AUC(0-t) (in vivo): 711 ± 81.5 ng·h/mL; MRT inf (in vivo): 15.8 ± 1.56 h; Tmax (in vivo): 4.7 ± 1.7 h; Cmax (in vivo): 63.1 ± 10.4 ng/mL; Cmax (in vivo; control group): 63.1 ± 10.4 ng/mL

Q: With CCCCNC(=O)NS(=O)(=O)c1ccc(C)cc1 [tolbutamide] as the compound, how does the oral bioavailability [5] read?
A: 90%

Q: For O=c1cc(-c2ccccc2)oc2ccc3ccccc3c12 [β-Naphthoflavone], which “% inhibition of CYP2C9 activity” value (CYP2C9 [1]; test article 1 μM) is on record?
A: 2.35%

Q: What about the “% inhibition of CYP2C9 activity” value (CYP2C9 [1]; test article 10 μM) of the same compound?
A: 4.64%

Source: patent US20130184227A1, “Cytochrome P450 2C9 Inhibitors” (priority 2004, published 2013)
